Results as given in article PMC10579241, “Impact of trifluoromethyl and sulfonyl groups on the biological activity of novel aryl-urea derivatives: synthesis, in-vitro, in-silico and SAR studies” (Scientific Reports, 2023).

Assays:
TP53 = assay: qRT-PCR, TP53 in HCT116 cells; type: cell-based, human; conditions: versus negative samples
Method: RNA was extracted from pancreas, prostate, lung and liver cell lines using a total RNA purification kit (Qiagen, Hilden, Germany) according to the manufacturer's instructions. An aliquot of RNA was diluted in RNase-free water to estimate RNA quantity. Aliquots were used immediately for reverse transcription (RT). cDNA synthesis was performed on extracted RNA, which was treated with DNase (Invitrogen, Germany) to remove any possible DNA contamination. The DNase-treated RNA was reverse transcribed into first-strand cDNA using the RevertAid First Strand cDNA Synthesis kit (Fermantas) according to the manufacturer's instructions. Determination of the pancreas, prostate, lung and liver cell line cDNA copy number was carried out using StepOne™ Real-Time PCR System from Applied Biosystems (Thermo Fisher Scientific, Waltham, MA USA). Gene expressions were detected by real-time PCR, which was performed using the Rotor-Gene Q system (Qiagen Company). A 25 µL reaction mixture consisted of 12.5 µL SYBR® Premix Ex TaqTM (TaKaRa, Biotech. Co. Ltd.), 0.5 µL of each primer (10 PMole) (Table 1), 1 µL cDNA (50 ng) and 10.5 µL RNase free water. The optimum amplification conditions were chosen empirically according to each tested gene. Generally, the amplification conditions include initial incubation (95.0 °C for 3 min), then 40 cycles of amplification with denaturation (95.0 °C for 15 s), annealing (55.0 °C for 30 s) and extension (72.0 °C for 30 s) steps then 71 cycles which started at 60.0 °C and then increased about 0.5 °C every 10 s up to 95.0 °C. Mean cycle threshold (Ct) values of triplicate samples are used for analysis. The Ct value indicates the fractional cycle number at which the amount of amplified target reaches a fixed threshold. Data from real-time PCR were analyzed using 2^−∆∆Ct method[38]–[40]. Data were represented as the fold change in target gene expression normalized to a House-Keeping gene (HKG) and relative to the control. β-actin was used as a HKG to normalize input RNA amount, RNA quality and reverse transcription efficiency.

[1] = test system: pancreatic cancer cell line (PACA2); assay: cells; type: cell-based; conditions: Homo sapiens, PaCa-2, 48 h
Escherichia coli = assay: Agar well diffusion, E. coli; type: cell-based; conditions: Escherichia coli, read-out: Inhibition zones diameter

Cc1ccc(S(=O)(=O)NC(=O)Nc2ccc(C(F)(F)F)cc2)cc1 [Compound 7, 4-Methyl-N-[(4-{trifluoromethyl}phenyl)carbamoyl]benzenesulfonamide]
TP53 gene expression level (TP53): suppression | mortality at 100 µg/mL ([1]; 100 μg/mL): 100% | IC50 ([1]; MTT): 44.4 ± 0.57 µM | zone of inhibition at 10000 µg/mL (Escherichia coli): 30 ± 0.74 mm
